ChEMBL document CHEMBL1201862, “PubChem BioAssay data set” (2004)
Activity calls are given as the source filed them.

Tests used:
Prothrombin = Prothrombin (Homo sapiens, UniProt P00734); experiment: Thrombin 1536 HTS Dose Response Confirmation. [Related pubchem assays: 1046 (Thrombin 1536 HTS; hits were confirmed in this assay)]; type: functional
CAAX prenyl protease 1 = CAAX prenyl protease 1 (Saccharomyces cerevisiae S288c, UniProt P47154); experiment: Ste24 protease inhibitors, dose response, biochemical, S. cerevisiae, plate reader, cherry-pick (AID 488815)
CAAX prenyl protease 1, sequence (P47154 whole entry): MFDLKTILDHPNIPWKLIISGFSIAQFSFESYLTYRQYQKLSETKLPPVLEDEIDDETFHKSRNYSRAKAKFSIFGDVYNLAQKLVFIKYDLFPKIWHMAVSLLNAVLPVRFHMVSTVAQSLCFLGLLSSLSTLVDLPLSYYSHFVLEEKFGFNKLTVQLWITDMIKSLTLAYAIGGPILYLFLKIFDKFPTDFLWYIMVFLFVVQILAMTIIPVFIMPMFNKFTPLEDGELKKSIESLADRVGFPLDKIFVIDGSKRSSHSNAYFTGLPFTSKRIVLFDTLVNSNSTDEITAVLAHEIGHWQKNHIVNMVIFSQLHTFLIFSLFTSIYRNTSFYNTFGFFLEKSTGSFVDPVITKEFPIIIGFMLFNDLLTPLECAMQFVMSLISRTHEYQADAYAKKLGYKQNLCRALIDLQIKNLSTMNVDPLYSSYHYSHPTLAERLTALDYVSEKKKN

CAAX prenyl protease 2 [1] = target: T1, CAAX prenyl protease 2 (Homo sapiens, UniProt Q9Y256); experiment: human Rce1 protease inhibitors, dose response, biochemical, yeast membranes, quenched-peptide fluorescence, cherry-pick (AID 588849)
T1 sequence (Q9Y256 whole entry): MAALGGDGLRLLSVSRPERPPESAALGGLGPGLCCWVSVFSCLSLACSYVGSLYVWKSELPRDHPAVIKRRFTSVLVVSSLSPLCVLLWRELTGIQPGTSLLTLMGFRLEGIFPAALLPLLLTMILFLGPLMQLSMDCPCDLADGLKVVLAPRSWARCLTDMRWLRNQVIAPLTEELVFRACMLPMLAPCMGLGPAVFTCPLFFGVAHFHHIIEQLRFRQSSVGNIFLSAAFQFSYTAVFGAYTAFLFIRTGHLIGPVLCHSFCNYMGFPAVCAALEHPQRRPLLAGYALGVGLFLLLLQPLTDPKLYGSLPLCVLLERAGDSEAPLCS

HEK293 [2] = experiment: cytotoxicity in HEK293T NF-kB-Luc cells, SAR follow-up, cytotoxicity control for NF-kB activator project, cell-based, resazurin fluorescence (AID 493251); type: functional; details: Homo sapiens
Jurkat [3] = experiment: SAR Analysis of small molecule inhibitors of T-cell specific antigen receptor-induced NF-kB activation in a Jurkat cell line using a luminescence assay - Set 2. [Related pubchem assays (depositor defined):AID435003, AID435012, AID465]; type: functional, cell-based; details: Homo sapiens
HEK293 [4] = experiment: SAR Analysis of small molecule inhibitors of T-cell specific antigen receptor-induced NF-kB activation in a HEK-293T cell line using a luminescence assay - Set 2. [Related pubchem assays (depositor defined):AID435003, AID435012, AID489026]; type: functional, cell-based; details: Homo sapiens
CAAX prenyl protease 2 [5] = target: CAAX prenyl protease 2 (Saccharomyces cerevisiae S288c, UniProt Q03530); type: biochemical
CAAX prenyl protease 2 (Saccharomyces cerevisiae S288c, UniProt Q03530), sequence (Q03530 whole entry, the tested form may be a part): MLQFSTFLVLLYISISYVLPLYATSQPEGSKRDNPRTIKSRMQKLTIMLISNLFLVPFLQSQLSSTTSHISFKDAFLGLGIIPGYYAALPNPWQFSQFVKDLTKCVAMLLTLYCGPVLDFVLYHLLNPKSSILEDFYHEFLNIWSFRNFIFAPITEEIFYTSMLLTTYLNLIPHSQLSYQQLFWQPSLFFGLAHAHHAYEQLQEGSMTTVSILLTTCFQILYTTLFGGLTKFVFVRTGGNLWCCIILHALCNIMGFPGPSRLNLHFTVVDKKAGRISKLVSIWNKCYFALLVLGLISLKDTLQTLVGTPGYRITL

[6] = target: T2, RNA-binding protein pos-1 (Caenorhabditis elegans, UniProt G5EF15); experiment: inhibitors of POS-1/mex-3 RNA binding, dose response, biochemical, fluorescence polarization (AID 1964);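 note: purified POS-1 fused to maltose binding protein made in E. coli; potency of compounds blocking POS-1 binding to fluorescent RNA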
T2 sequence (G5EF15 whole entry): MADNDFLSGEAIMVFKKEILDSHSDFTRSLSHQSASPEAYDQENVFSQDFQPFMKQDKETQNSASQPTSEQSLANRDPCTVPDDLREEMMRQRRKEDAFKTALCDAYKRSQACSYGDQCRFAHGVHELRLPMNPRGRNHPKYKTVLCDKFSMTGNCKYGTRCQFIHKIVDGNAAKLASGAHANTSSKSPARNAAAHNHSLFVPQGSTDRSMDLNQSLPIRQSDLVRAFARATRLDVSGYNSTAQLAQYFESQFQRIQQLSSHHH

[7] = target: T3, Zinc finger protein mex-5 (Caenorhabditis elegans, UniProt Q9XUB2); experiment: MEX-5/TCR-2 RNA interaction inhibitors, dose response, biochemical, C. elegans, fluorescence polarization (AID 1960)
T3 sequence (Q9XUB2 whole entry): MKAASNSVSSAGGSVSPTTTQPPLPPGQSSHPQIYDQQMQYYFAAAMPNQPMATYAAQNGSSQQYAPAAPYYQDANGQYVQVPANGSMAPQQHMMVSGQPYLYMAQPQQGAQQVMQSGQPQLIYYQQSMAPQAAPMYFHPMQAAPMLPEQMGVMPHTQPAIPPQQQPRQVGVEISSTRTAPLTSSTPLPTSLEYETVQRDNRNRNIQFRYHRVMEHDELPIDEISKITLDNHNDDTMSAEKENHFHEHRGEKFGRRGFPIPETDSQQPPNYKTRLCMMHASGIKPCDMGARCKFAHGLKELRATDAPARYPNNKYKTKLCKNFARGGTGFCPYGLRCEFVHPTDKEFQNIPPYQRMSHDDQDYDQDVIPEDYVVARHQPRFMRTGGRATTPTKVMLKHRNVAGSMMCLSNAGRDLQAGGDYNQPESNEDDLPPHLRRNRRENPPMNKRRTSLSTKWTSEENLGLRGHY

Estrogen receptor = target: T4, Estrogen receptor (Homo sapiens, UniProt P03372);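 note: potency for inhibiting coactivator peptide recruitment to the receptor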
T4 sequence (P03372 whole entry): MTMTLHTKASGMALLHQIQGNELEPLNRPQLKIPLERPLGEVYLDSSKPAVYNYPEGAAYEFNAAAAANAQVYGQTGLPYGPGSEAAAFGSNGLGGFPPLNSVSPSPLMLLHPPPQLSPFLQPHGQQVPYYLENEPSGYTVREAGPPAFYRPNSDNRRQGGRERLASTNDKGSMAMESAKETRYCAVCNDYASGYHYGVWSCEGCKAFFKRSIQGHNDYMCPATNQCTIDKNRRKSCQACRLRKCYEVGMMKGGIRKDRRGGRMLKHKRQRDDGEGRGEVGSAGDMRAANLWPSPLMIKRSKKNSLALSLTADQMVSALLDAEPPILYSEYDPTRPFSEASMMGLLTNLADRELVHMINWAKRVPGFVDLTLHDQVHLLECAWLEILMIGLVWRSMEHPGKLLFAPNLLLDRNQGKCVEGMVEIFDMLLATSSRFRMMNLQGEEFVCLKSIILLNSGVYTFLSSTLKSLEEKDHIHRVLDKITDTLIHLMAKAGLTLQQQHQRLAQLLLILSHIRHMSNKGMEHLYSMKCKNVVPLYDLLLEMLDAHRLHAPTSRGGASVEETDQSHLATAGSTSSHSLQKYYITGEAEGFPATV

Estrogen receptor beta [8] = target: T5, Estrogen receptor beta (Homo sapiens, UniProt Q92731);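 note: recombinant ER-beta bound to coactivator SRC1 peptide in presence of estradiol agonist; inhibitors block coactivator peptide binding and lower the FRET signal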
T5 sequence (Q92731 whole entry): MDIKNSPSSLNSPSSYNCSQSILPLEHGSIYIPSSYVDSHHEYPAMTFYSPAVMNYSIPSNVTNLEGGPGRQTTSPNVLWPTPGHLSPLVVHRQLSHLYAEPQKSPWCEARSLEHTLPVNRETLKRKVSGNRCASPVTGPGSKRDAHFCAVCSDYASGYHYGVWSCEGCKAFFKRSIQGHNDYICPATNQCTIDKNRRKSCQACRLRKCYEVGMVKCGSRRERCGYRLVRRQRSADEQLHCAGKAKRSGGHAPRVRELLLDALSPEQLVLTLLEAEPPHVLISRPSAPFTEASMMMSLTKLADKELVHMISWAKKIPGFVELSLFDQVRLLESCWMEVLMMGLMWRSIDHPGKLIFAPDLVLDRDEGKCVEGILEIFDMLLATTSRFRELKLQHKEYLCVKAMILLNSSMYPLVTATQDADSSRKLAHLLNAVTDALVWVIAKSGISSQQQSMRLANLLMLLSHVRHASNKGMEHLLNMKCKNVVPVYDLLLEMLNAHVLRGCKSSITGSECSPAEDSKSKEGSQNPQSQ

Estrogen receptor beta [9] = target: T5, Estrogen receptor beta; experiment: ERβ–SRC-3 coactivator interaction inhibitors, confirmation, orthogonal assay, biochemical, ELISA, streptavidin-HRP readout (AID 1060)
Troponin, cardiac muscle = Troponin, cardiac muscle (Homo sapiens, UniProt P19429+P45379+P63316); experiment: Fluorescence-based biochemical high throughput dose response assay for activators of the calcium sensitivity of cardiac Regulated Thin Filaments (RTF). [Related pubchem assays (depositor defined):AID493008, AID493018, AID504382, AID504383]; type: protein-complex assay
[10] = NIH-3T3 fibroblast cytotoxicity, dose response, cytotoxicity control, cell-based, fluorescence, Alamar Blue, secondary assay (AID 2327); type: functional;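 note: NIH-3T3 mouse fibroblasts cultured with fluconazole at 8 µg/mL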
[11] = C. albicans growth with fluconazole, confirmation, fluorescence, retest (AID 2467); type: functional, cell-based
[12] = target: T6, Serine/threonine-protein phosphatase (Candida dubliniensis (strain CD36 / CBS 7987 / NCPF 3949 / NRRLY-17841) (Yeast), UniProt B9W6M3); experiment: calcineurin pathway inhibitors in yeast reporter, dose response, S. cerevisiae, CDRE-lacZ, luminescence, secondary (AID 2388); type: functional, cell-based;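 note: yeast reporter cells carrying a calcineurin-responsive lacZ construct stimulated with calcium chloride; luminescent beta-galactosidase reporter signal in whole cells rather than isolated phosphatase activity; potency for inhibition where a drop in reporter signal means calcineurin blockade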
T6 sequence (B9W6M3 whole entry): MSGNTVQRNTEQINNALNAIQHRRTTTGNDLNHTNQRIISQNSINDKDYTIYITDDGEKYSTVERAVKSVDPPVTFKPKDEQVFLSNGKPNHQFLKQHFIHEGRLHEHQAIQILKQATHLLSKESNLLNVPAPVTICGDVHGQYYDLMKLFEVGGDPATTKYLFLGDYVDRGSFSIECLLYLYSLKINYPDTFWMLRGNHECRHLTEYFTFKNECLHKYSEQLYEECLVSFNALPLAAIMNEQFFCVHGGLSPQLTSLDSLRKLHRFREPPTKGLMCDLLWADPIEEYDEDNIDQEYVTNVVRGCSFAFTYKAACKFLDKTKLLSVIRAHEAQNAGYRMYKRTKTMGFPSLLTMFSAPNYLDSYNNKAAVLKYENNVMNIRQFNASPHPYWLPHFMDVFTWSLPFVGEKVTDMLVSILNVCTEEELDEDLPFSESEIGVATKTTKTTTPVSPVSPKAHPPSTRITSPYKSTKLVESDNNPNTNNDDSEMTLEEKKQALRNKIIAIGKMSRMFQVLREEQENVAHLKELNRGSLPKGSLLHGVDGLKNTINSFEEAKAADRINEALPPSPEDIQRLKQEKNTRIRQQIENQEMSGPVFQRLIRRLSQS

ORF 73 = ORF 73 (Human herpesvirus 8, UniProt O40947); experiment: inhibitors of C-LANA binding to LBS DNA, dose response, biochemical, fluorescence polarization, cherry-picked samples (AID 504725); design: species or system Human gammaherpesvirus 8;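 note: fluorescence polarization of a labeled DNA duplex reporting LANA DNA binding; potency is for inhibitors that block LANA binding to the DNA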
ORF 73, sequence (O40947 whole entry): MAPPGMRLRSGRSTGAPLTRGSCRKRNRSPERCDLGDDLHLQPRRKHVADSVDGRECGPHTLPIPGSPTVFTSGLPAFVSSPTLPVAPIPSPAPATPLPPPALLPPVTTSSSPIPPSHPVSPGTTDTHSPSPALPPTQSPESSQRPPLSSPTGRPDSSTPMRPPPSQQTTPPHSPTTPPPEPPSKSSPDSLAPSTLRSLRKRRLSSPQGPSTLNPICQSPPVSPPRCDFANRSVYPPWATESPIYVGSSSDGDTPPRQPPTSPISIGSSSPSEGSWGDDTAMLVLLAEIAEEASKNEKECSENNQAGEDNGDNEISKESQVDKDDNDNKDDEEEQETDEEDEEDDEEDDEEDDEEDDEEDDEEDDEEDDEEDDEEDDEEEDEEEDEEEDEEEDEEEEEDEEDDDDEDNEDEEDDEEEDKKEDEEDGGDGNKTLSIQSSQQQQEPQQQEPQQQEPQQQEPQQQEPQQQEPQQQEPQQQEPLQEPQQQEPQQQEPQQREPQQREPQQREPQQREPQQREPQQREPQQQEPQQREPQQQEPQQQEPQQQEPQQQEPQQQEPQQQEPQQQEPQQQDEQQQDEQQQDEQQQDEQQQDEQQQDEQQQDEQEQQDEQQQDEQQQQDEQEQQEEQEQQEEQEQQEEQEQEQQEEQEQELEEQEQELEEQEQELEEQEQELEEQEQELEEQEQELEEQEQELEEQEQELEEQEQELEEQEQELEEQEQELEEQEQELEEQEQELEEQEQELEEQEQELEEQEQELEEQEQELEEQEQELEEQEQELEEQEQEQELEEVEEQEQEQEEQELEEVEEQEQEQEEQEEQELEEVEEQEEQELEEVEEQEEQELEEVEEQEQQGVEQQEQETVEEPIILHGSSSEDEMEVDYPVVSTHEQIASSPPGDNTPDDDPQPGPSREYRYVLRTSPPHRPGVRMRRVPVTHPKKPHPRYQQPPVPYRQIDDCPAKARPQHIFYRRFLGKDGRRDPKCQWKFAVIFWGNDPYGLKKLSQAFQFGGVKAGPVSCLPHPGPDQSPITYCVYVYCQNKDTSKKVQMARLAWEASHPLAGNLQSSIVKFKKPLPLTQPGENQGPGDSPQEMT

[13] = target: UDP-galactopyranose mutase (Mycobacterium tuberculosis, UniProt P9WIQ1); experiment: Inhibitors of Mycobacterium tuberculosis UDP-galactopyranose mutase (UGM) enzyme Measured in Biochemical System Using Plate Reader - 2105-02_Inhibitor_Dose_CherryPick_Activity. [Related pubchem assays (depositor defined):AID504439]
UDP-galactopyranose mutase, sequence (P9WIQ1 whole entry): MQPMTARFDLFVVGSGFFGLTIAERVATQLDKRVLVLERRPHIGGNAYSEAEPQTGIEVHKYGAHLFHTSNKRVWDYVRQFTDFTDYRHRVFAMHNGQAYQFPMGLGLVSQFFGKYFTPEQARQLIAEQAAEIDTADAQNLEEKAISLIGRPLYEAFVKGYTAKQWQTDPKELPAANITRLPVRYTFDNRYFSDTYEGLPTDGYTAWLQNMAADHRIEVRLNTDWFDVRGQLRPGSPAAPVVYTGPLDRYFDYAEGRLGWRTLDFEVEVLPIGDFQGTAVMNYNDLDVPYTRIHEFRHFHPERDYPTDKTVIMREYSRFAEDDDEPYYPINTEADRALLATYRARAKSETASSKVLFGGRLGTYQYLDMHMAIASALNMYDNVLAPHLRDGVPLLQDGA

[14] = target: ATP-dependent molecular chaperone HSP82 (Candida albicans (strain WO-1) (Yeast), UniProt C4YTQ8); experiment: loss of DOC-induced GRE-beta-galactosidase reporter signal, dose response, Hsp90 inhibitor project, S. cerevisiae, luminescence (AID 2400); type: functional, cell-based;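 note: beta-galactosidase luminescence from glucocorticoid response element reporter as proxy for Hsp90 function; inhibitor potency where signal loss means Hsp90 inhibition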
ATP-dependent molecular chaperone HSP82, sequence (C4YTQ8 whole entry): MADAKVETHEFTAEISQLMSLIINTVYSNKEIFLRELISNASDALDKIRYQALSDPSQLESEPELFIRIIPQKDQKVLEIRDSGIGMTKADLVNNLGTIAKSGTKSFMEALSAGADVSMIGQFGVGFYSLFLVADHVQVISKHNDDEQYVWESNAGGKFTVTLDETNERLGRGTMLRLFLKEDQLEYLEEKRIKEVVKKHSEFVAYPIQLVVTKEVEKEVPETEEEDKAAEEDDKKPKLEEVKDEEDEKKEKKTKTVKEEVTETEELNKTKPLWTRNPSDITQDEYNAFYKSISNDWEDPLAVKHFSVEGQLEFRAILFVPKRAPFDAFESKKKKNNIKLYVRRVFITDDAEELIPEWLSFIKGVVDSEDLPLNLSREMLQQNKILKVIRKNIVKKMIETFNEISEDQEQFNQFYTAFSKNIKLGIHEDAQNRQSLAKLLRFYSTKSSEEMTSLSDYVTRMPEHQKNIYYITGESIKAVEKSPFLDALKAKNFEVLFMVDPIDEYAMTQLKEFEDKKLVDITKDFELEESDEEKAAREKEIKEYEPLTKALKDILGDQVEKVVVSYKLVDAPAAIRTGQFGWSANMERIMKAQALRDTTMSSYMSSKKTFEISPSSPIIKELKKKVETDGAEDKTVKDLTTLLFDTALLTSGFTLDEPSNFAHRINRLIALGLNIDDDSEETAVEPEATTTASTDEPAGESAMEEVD

[15] = inhibitors of firefly luciferase expression or activity, dose response, H4 neuroglioma cells, luminescence (AID 1990); type: functional, cell-based
[16] = Luminescence Cell-Based Dose Response HTS to Identify Inhibitors of 5'UTR Stem-Loop Driven Prion Protein mRNA Translation in H4 Neuroglioblastoma Cells. [Related pubchem assays: 1827 (Project Summary), 1813 (Primary HTS)]; type: functional
[17] = target: T7, Heat shock factor protein 1 (Mus musculus, UniProt P38532); experiment: inhibition of MG132-induced HSE-luciferase signal, confirmation, cell-based, NIH3T3, luminescence, dose retest (AID 2382); type: functional;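 note: NIH3T3 fibroblasts with HSF1-driven luciferase reporter stressed by proteasome inhibitor MG132; luminescence from HSF1-driven luciferase expression after 8 hours of MG132 stress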
T7 sequence (P38532 whole entry): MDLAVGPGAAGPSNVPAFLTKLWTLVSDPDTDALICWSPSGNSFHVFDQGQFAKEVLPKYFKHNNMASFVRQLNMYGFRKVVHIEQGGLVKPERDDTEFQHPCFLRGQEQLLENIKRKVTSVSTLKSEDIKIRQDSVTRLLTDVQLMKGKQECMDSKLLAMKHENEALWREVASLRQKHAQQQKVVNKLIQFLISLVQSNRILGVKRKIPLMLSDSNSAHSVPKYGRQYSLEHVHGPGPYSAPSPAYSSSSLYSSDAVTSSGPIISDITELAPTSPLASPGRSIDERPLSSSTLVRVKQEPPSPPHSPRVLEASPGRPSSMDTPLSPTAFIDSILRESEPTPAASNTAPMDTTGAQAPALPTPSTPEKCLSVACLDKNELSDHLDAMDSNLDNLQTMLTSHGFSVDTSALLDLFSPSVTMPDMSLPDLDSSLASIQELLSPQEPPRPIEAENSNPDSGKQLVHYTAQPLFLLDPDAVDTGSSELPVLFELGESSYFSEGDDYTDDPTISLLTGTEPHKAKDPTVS

[18] = inhibitors of SNCA 5'UTR-driven reporter translation, confirmation, H4 neuroglioma cells, luminescence (AID 1988); type: functional, cell-based
Jurkat [19] = experiment: antigen receptor-induced NF-kB inhibitors, dose response, Jurkat, luciferase reporter, luminescence, B- and T-cell (AID 489004); type: functional, cell-based; details: Homo sapiens;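 note: NF-kB luciferase reporter Jurkat cells stimulated with PMA plus ionomycin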
[20] = cytotoxicity in HEK-293T NF-kB-Luc cells, dose response, cytotoxicity control for B/T-cell NF-kB inhibitor project, cell-based, uHTS hits (AID 489019); type: functional;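 note: IC50 reflects cytotoxicity as loss of cell viability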
[21] = target: T8, COUP transcription factor 2 (Homo sapiens, UniProt P24468); experiment: Luminescence-based cell-based high throughput dose response assay to identify inhibitors of COUP-TFII (NR2F2).; type: functional;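 note: HEK293 cells transiently cotransfected with COUP-TFII expression vector and reporter; luciferase reporter luminescence driven by COUP-TFII from the pX2-168 reporter plasmid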
T8 sequence (P24468 whole entry): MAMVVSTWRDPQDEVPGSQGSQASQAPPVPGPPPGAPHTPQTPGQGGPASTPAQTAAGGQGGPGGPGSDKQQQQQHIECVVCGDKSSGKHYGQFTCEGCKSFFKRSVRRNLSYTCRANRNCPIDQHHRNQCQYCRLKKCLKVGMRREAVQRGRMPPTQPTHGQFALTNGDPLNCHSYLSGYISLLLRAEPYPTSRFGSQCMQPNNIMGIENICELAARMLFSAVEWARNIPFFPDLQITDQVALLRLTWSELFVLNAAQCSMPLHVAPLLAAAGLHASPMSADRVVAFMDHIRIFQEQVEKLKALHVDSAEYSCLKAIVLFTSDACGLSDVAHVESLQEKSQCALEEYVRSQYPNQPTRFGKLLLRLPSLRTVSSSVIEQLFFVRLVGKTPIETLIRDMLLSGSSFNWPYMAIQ

CCOC(=O)C1=C(C)OC(N)=C(C#N)C1c1cc2c(cc1[N+](=O)[O-])OCO2 (centres undefined)
IC50 (Prothrombin): 0.915 µM (active)
AC50 (CAAX prenyl protease 1): 5.61 µM (active)
AC50 (CAAX prenyl protease 2 [1]): 13.2 µM (active)

CCCCC(=O)NC(c1ccc(C)cc1)c1ccc2cccnc2c1O (centres undefined)
IC50 (HEK293 [2]): 26.1 µM (inactive)
IC50 (Jurkat [3]): 2.65 µM (active)
IC50 (HEK293 [4]): 2.78 µM (active)

COc1ccc(C2c3c(ncn(CCCO)c3=N)Oc3ccc4ccccc4c32)cc1 (centres undefined)
AC50 (CAAX prenyl protease 2 [5]): 5.6 µM (active)
AC50 (CAAX prenyl protease 1): 8.82 µM (active)

CC(=O)Nc1ccc(/N=C/c2nc(-c3ccc(C)cc3)oc2O)cc1
EC50 [6]: > 300 µM (not active)
EC50 [7]: > 300 µM (inconclusive)
IC50 (Estrogen receptor): 8.2 µM (active)
IC50 (Estrogen receptor beta [8]): > 50 µM (not active)
IC50 (Estrogen receptor beta [9]): 21.6 µM (not active)
EC50 (Troponin, cardiac muscle): 11.6 µM (inactive)

CCN(CC)c1ccc2cc(S(=O)(=O)c3ccc(C)cc3)c(=O)oc2c1
EC50 [10]: 25.2 µM (active)
EC50 [11]: 0.203 µM (active)
EC50 [12]: > 180 µM (inactive)
AC50 (ORF 73): 18.4 µM (active)
AC50 [13]: 63.4 µM (active)
EC50 [14]: 21.9 µM (active)

Cc1ccc(C(=O)Nc2cccc(C(F)(F)F)c2)cc1NC(=O)c1ccno1
EC50 [15]: < 0.1 µM (active)
EC50 [16]: 6.47 µM (active)
EC50 [17]: 0.333 µM (active)
EC50 [18]: 0.285 µM (active)
IC50 (Jurkat [19]): > 80 µM (inactive)
IC50 [20]: > 80 µM (inactive)

COc1ccc(NS(=O)(=O)c2cccc(NC(=O)c3ccc(Cl)nc3)c2)cc1
IC50 (Jurkat [19]): 38.2 µM (inactive)
IC50 [20]: > 80 µM (inactive)
IC50 [21]: 3.21 µM (active)
